Consider ten compounds from patent US8980952B2, “Methods for treating brain swelling with a compound that blocks a non-selective cation channel” (University of Maryland, Baltimore, priority 2002, dated 2015).

In data set [1] the test system is native reactive astrocytes (NRAs). The data set is classed as cell-based, rat.
For data set [2] the test system is unchanged. Briefly: Current clamp recording of membrane potential, nystatin-perforated patch. The format is cell-based, rat.
The test system is the same in data set [3]. The experiment in a line: Cell blebbing and swelling after ATP depletion (SEM, phase contrast microscopy). The format is cell-based, rat.
For data set [4] the test system is unchanged. The experiment in a line: Necrotic/apoptotic cell death by propidium iodide and annexin V staining. The format is cell-based, rat.
The nature of data set [5]: Thromboembolic (TE) MCA stroke model. Particulars: for Infarct volume, percent of hemisphere volume: 75 ng/hr. The format is in vivo, rat.
Data set [6] can be described thus: Thromboembolic stroke with tPA reperfusion at 6 hr, hemorrhagic conversion. The format is in vivo, rat. Particulars: 24 hr after stroke, co-treated with tPA 10 mg/kg i.v. at 6 hr; loading dose 1.5 μg/kg i.v. plus s.c. pump.
Data set [7] has as its system MMP-9 & MMP-2. The experiment in a line: Zymography of gelatinase activity of recombinant enzyme and stroke tissue. The data set is classed as biochemical. Particulars: glibenclamide 10 μM; MMP inhibitor II 300 nM. The method, then:
Activation of MMP-9 & MMP-2 in stroke tissue was compared to controls. […] Calbiochem). Next, the supernatants underwent a gelatinase purification process with gelatin-Sepharose 4B (Pharmacia), and Zymography was performed on the purified supernatants in sodium dodecyl sulfate gels containing gelatin (Rosenberg, 1994). Dried gels were scanned with a transparency scanner, and images were analyzed by densitometry. The relative lysis of an individual sample was expressed as the integrated density value of its band and divided by the protein content of the sample.

Data set [8] is described as follows: Rodent model of stroke, glibenclamide vs. saline by subcutaneous mini-pump. The data set is classed as in vivo, rat.
The subject of data set [9] is gliotic capsule. The conditions noted are these: for GFAP response / gliotic capsule: glibenclamide 1 μM or diazoxide 10 μM at 0.5 μl/hr × 7 days.
Data set [10] concerns SUR1. The experiment in a line: SUR1 knockdown by antisense oligodeoxynucleotide infusion at gelfoam implantation site. The data set is classed as in vivo, rat. The conditions noted are these: ODN infused 14 days; vs. scrambled sequence ODN.
Setting [11] is: glibenclamide 1 μM with Na azide 1 mM.

Where “and” joins values, the source holds several entries; their conditions need not be identical. Equal values may be shown once. Entries after “also recorded” stand apart in the source; their conditions may differ. Read-outs that look alike come from different tables or passages of the source.

As to “iberiotoxin: toxin partially blocking large conductance Ca2+-activated K+ channel currents (QFTDVDCSVSKECWSVCKDLFGVDRGKCMGKKCRCYQ)”, the “Block of large outward currents” value in data set [1] was “partially blocked”.

`OC[C@@H](O)[C@@H](O)[C@H](O)[C@H](O)CO` [mannitol]: in data set [2] (50 mM mannitol), the “Effect on NaN3-induced depolarization” value is on record as “neither the time course nor the magnitude of the depolarization is affected”. The “Delay of bleb formation after exposure to NaN3” value in data set [3] (50 mM mannitol, 350 mOsm) is greater than 30 min.

Regarding `C[C@@H]1O[C@@H](O[C@H]2C[C@@H](O)[C@]3(CO)[C@H]4[C@H](O)C[C@]5(C)[C@@H](C6=CC(=O)OC6)CC[C@]5(O)[C@@H]4CC[C@]3(O)C2)[C@H](O)[C@H](O)[C@H]1O` [ouabain], the Depolarization result in [2] (1 mM ouabain) is given as “small reversible depolarization”.

As for `CC1=NS(=O)(=O)c2cc(Cl)ccc2N1` [diazoxide], in data set [3] (no ATP depletion), the “Blebbing with channel opener alone” value is given as “blebbing occurs even without ATP depletion; also recorded: developed progressive blebbing consistent with cytotoxic edema”. The “Necrotic death by channel opener” value in [4] is “necrotic death can also be induced by diazoxide”.

On to “charybdotoxin: toxin partially blocking large conductance Ca2+-activated K+ channel currents”, for which the “Block of large outward currents” value in [1] was “partially blocked”.

Take `[N-]=[N+]=[N-]` [NaN3, Sodium azide]: in data set [2], the Em after depolarization is reported as −4.3±0.9 mV. The “Time to apparent blebbing after exposure” value in data set [3] was 10 to 15 min and 7 to 10 min.

With `COc1ccc(Cl)cc1C(=O)NCCc1ccc(S(=O)(=O)NC(=O)NC2CCCCC2)cc1` [glibenclamide], the “Blebbing on NaN3 in presence of glibenclamide” value in data set [3] (pretreated cells, observed 30 min) is “does not cause blebbing; also recorded: remained phase bright with no pathological deterioration”. In addition, in data set [4] (setting [11]), the “annexin V labeling (apoptotic death)” value is reported as “not significantly different”. For the same compound, the “number of PI-positive cells (necrotic death)” value in data set [4] (setting [11]) is recorded as “dramatically decreased; also recorded: largely prevented”. The results for the “Infarct volume, percent of hemisphere volume” value in data set [5] (2 days after MCAO) and in data set [5] (7 days after MCAO) were 16.7±2.2% and 15.2±1.2%, respectively. In addition, the “Stroke volume, percent of hemisphere volume” value in [5] (48 hr after stroke, 10 male rats per group) was found to be 15.5±2.3%. In addition, the “Stroke volume vs. saline at 48 hr” value is given as “significant reduction in stroke volume” in [5] (begun 2 hr after stroke, loading dose 3.3 μg/kg i.p.); “not statistically significant” in data set [5] (begun 4 hours after MCAO, loading dose 3.3 μg/kg i.p.); “statistically significant reductions in stroke volume” in data set [5] (begun 4 hours after MCAO, loading dose 33.0 μg/kg i.p. with glucose 1 gm/kg); “statistically significant reductions in stroke volume” in data set [5] (begun 6 hours after MCAO, loading dose 33.0 μg/kg i.p. with glucose 1 gm/kg); “significant reduction in stroke volume” in data set [5] (infusion 75 ng/hr begun immediately after stroke, no loading dose). The “Animals with hemorrhagic conversion” value in data set [6] is 1 of 6 and ⅕. Also, in [7], the Gelatinase activity entry was “did not directly inhibit gelatinase activity”. Also, the “3-day mortality after stroke” value in [8] (rat, in vivo, sc) stood at 28%. Besides, the “Excess water in stroke hemisphere” value in [8] (vs. saline-treated rats, n=5 per group) is listed as “only half as much excess water”. Besides, the “GFAP response / gliotic capsule” value in data set [9] was “well defined gliotic capsule”; in data set [9] (listed as Glibenclamide) it was “reduced the overall injury response”. Moreover, in [9] (infusion into site of gelatin sponge), the “Inflammatory response / PMN infiltration” value was “minimized the inflammatory response”. For the same compound, the “Reduction of edema with added glucose” value (8 hr after MCAO, supplemental glucose 1 gm/kg i.p. at 4 hr) is on record as “just as effective in reducing edema”. In addition, the “Rise of water in involved hemisphere” value (8 hr after stroke, saline 3.4%) was 2.0%. Also, the “Rise of water in TTC(+) tissue” value (8 hr after stroke, saline 5.4%) came to 2.5%. Further, the “Water in TTC(−) tissue of involved hemisphere” value (8 hr after stroke, saline 78.7±1.0%) is reported as 78.6±0.4%. Under “8 hr after stroke, saline 81.3±0.5%, control hemisphere 77.9±0.2%”, the “Water content of involved hemisphere” value is recorded as 79.9±0.3%. Besides, the “Water in TTC(+) tissue of involved hemisphere” value (8 hr after stroke, saline 83.4±1.1%) came out at 80.5±0.3%. This compound also yielded a Serum glucose (rat, in vivo) of 93 ± 3 mg/dL. Further, the “Mortality during 7 days after MCA stroke” value (rat, in vivo, sc) turned out to be 24%.

As for `CC[N+](CC)(CC)CC.[Cl-]` [TEA, tetraethylammonium chloride], the “Block of large outward currents” value in data set [1] is recorded as “partially blocked”.

Turning to “SUR1KD: SUR1 antisense oligodeoxynucleotide 5′-GGCCGAGTGGTTCTCGGT-3′ (SEQ ID NO: 9) (DNA, backbone not given here)”, the “Depolarization on application of Na azide” value in [2] was found to be 8.7±1.7 mV. In data set [3] (cells from SUR1KD), the “Membrane blebbing after Na azide” value is on record as “not observed”. Further, the “SUR1 expression in gliotic capsule (immunoblot)” value in [10] was “significant reduction in SUR1 expression”.

Consider `Nc1ccncc1` [4-AP, 4-aminopyridine], for which the “Outward current remaining in presence of charybdotoxin” value in [1] was “further blocked”.
